Read-outs that look alike come from different tables or passages of the source.
Legend:
HIV (type IIIB) = assay: inhibition of budding of HIV from infected H-9 cells (reverse transcriptase activity per unit culture medium as index); format: cell-based; details: H-9 cells infected with HIV (type IIIB), 15 minutes treatment, then 360 minutes culture
Method: (§1) Human lymphocyte-derived H-9 cells, infected with HIV (type IIIB), were cultured in an RPMI-1640 medium (product of Biocell Laboratories) containing wortmannin and 10% fetal bovine serum (FBS) at 37°C for 15 minutes in a CO2 incubator. The H-9 cells thus obtained were washed with an RPMI-1640 medium, and then cultured in another RPMI-1640 medium containing 10% FBS at 37°C for 360 minutes in a CO2 incubator. The reverse transcriptase activity per unit culture medium was used as an index to determine the inhibitory effect of wortmannin on the budding of HIV.
(§2) The same test as mentioned above was repeated using MS-444 instead of wortmannin.

[1] = test system: Human lymphocyte-derived H-9 cells; assay: host cell growth in the HIV budding test; details: concentration of 100 µM
Method: as §1, §2

[2] = rat, in vivo

Row | Compound | Budding of HIV (%) (HIV (type IIIB); 0.1 µM test compound) | Budding of HIV (%) (HIV (type IIIB); 1.0 µM test compound) | Budding of HIV (%) (HIV (type IIIB); 10 µM test compound) | Host cell growth [1] | Budding of HIV (%) (HIV (type IIIB); 100 µM test compound) | Budding of HIV (%) (HIV (type IIIB); 1000 µM test compound) | acute toxicity, mortality ([2]; ip, 100 mg/kg) | acute toxicity, mortality ([2]; po, 300 mg/kg)
1 | COC[C@H]1OC(=O)c2coc3c2[C@@]1(C)C1=C(C3=O)[C@@H]2CCC(=O)[C@@]2(C)C[C@H]1OC(C)=O [Wortmannin] | 67% | 49% | 39% | not influenced | – | – | – | –
2 | Cc1occ2c1C(=O)c1c(O)ccc(O)c1C2 [MS-444] | – | – | 95% | – | 82% | 20% | no rats died | no rats died

From patent EP0610519B1, “ANTI-HIV DRUG” (priority 1992, dated 1994)
